These results are taken from US12409148B2, “Plant tissue-derived nanoparticles and food powders” (PSIGRYPH INC., priority 2018, dated 2025).

Entries after “also recorded” stand apart in the source; their conditions may differ.

Data set [1] relates to Normal Cell Line CRL 1790. The protocol:
(§1) Cell culture: Three cell lines derived from colon, CRL 1790, a normal cell line, HT 29, a colorectal cancer cell line and CRL 2158 a multidrug resistant colorectal cancer cell line (ATCC) were used to evaluate the cytotoxicity of nanocomplexes. Cells were cultured in media specifically recommended for each cell line. For HT 29, the medium used was DMEM (Dulbecco's modified Eagle's medium, Sigma), for CRL 2158, the medium used was RPMI, and for CRL 1790, the medium used was EMEM (Eagle's minimum essential medium; Cedarlane Labs, Burlington, ON, Canada). All the media were supplemented with FBS, Penicillin/streptomycin, and L-glutamine. At confluency (˜80%), cells were washed with 1×PBS twice. Cells were incubated with trypsin-EDTA for 5 minutes and then diluted in respective media supplemented with 10% FBS before staining with trypan blue (50 ul of cells and 450 ul of trypan blue) and counting viable cells to evaluate cytotoxicity. The cytotoxicity was determined by trypan blue exclusion by living cells and blue staining of dead cells. The number of dead cells in a unit area was counted and expressed as a percentage of total cells in the area. […]

Data set [2] concerns Colorectal MDR cell line CRL 2158. The protocol: as §1
Data set [3] is described as follows: DPPH radical scavenging capacity of food powder. Type of data set: biochemical. The conditions noted are these: positive control at same concentrations as polyphenols. A general note: Loss of DPPH colour is used to gauge radical scavenging.
Another data set relates to HT 29 cells. The data set can be described thus: Calcein uptake by confocal microscopy. The class given is cell-based, human. The procedure:
(§2) Calcein uptake into HT 29, CRL 1790 cells: Uptake of calcein-loaded nanoparticles into mammalian cells. Calcein by itself is impermeable through membrane, and may be taken up at a low level by endocytosis. Ethanol-bleached cherry was homogenized in water, also containing 1 mg/g fresh weight equivalent of calcein, and the supernatant dialyzed against water. Calcein complexed to nanofilaments is retained within the dialysis bag, and used for uptake measurements by confocal microscopy.
(§3) Studies were also performed to investigate use of nanofibres as delivery vehicles for a cargo of interest, where the cargo was non-covalently complexed with the nanofibres. In this study, nanofibres were used for cellular delivery of calcein. […]
(§4) Uptake of complexed molecules by nanofibres: Nanofibres are extremely long (micrometers in length, ˜5 nm in diameter; see FIG. 37, for example), and their ability to cross the plasma membrane was investigated. […] HT-29 and CRL-1790 cells were incubated in the presence of calcein alone, and calcein-complexed nanofibres (of equal fluorescence intensity). Uptake of calcein and calcein complexed with nanofibres were monitored by confocal microscopy. […] Similar experiments were also conducted with nanoparticles, however, because of quenching of fluorescence by polyphenols, successful acquisition of images was not achieved.

In another data set the test system is CRL 1790 cells. In words: Calcein uptake by confocal microscopy. Type of data set: cell-based, human. The protocol:
as §2, §3, §4

As to `CC(=O)O[C@H]1C(=O)[C@@]2(C)[C@H]([C@H](OC(=O)c3ccccc3)[C@]3(O)C[C@H](OC(=O)[C@H](O)[C@@H](NC(=O)c4ccccc4)c4ccccc4)C(C)=C1C3(C)C)[C@]1(OC(C)=O)CO[C@@H]1C[C@@H]2O` [Paclitaxel, paclitaxel], the “cytotoxicity (in words)” value in data set [1] and in data set [2] was “low level of cytotoxicity” each time. Compound `Cc1c(C)c2c(c(C)c1O)CCC(C)(C(=O)O)O2` (centres unmarked) [Trolox] had a TEAC value in data set [3] of 1.

For the compound `O=C(O)CN(CC(=O)O)Cc1cc2c(cc1O)Oc1cc(O)c(CN(CC(=O)O)CC(=O)O)cc1C21OC(=O)c2ccccc21` [calcein], the figures for the “uptake of calcein into cells” value in the data set on HT 29 cells and with CRL 1790 cells were “comparatively very low; also recorded: Far reduced uptake” and “comparatively very low”, respectively.
